Assay results as given in ChEMBL document CHEMBL1201862, “PubChem BioAssay data set” (2004).
The source made the active and inactive calls.

Legend:
fMet-Leu-Phe receptor = molecular target: T1, fMet-Leu-Phe receptor (Homo sapiens, UniProt P21462); experiment: formyl peptide receptor binders – dose response (AID 519); format: functional
T1 sequence (P21462 whole entry): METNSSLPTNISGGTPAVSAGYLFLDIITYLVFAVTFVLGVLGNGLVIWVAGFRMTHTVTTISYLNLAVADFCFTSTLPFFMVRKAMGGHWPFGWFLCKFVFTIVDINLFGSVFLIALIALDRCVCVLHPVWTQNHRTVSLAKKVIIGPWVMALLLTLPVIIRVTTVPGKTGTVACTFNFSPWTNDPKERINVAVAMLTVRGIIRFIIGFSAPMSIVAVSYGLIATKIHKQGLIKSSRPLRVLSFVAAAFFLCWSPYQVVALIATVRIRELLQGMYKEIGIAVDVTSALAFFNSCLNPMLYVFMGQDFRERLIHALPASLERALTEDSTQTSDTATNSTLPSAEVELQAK

[1] = molecular target: T2, Nuclear receptor subfamily 0 group B member 1 (Homo sapiens, UniProt P51843); format: functional, cell-based;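 note: HEK293T cells transfected with SF-1 and DAX-1 plus StAR promoter luciferase reporter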
T2 sequence (P51843 whole entry): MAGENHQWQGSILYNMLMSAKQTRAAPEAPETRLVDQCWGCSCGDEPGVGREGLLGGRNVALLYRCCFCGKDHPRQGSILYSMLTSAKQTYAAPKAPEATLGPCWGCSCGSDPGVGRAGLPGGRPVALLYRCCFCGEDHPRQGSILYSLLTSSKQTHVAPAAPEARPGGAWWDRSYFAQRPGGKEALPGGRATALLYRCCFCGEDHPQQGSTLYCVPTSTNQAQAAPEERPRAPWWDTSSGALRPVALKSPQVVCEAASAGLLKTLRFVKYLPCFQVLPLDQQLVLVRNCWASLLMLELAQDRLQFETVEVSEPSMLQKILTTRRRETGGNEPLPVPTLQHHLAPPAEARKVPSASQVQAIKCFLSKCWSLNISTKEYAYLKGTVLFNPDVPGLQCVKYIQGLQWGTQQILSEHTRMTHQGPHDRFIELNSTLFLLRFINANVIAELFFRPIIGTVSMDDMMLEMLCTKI

cells [2] = format: functional, cell-based
[3] = molecular target: T3, DNA repair protein RAD52 homolog (Homo sapiens, UniProt P43351); format: functional, biochemical
T3 sequence (P43351 whole entry): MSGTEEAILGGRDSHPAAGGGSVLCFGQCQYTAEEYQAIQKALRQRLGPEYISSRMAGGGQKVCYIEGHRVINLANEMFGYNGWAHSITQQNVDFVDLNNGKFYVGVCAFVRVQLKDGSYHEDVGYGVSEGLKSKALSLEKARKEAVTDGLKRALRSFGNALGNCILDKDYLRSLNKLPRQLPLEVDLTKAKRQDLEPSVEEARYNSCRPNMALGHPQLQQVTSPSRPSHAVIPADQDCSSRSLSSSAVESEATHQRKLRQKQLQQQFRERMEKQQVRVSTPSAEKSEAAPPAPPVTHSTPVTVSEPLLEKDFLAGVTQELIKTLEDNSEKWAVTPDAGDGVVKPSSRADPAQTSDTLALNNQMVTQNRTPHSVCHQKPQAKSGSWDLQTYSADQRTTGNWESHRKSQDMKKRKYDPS

[4] = molecular target: Luciferin 4-monooxygenase (Photinus pyralis, UniProt P08659); experiment: inhibition of purified Photinus pyralis luciferase – biochemical, luminescence, dose response (AID 1891)
[5] = Luminescence Cell-Based Dose Confirmation HTS to Identify Inhibitors of Platelet Dense Granule Release. [Related pubchem assays: 1663 (Primary HTS), 1678 (Summary of Project)]; format: functional
Major prion protein = Major prion protein (Homo sapiens, UniProt P04156); format: functional, cell-based
cells [6] = experiment: cells
[7] = molecular target: NAD-dependent protein deacylase sirtuin-5, mitochondrial (Homo sapiens, UniProt Q9NXA8); experiment: sirtuin-5 deacylation blockers, concentration series – biochemical, fluorescence imaging, cherry-pick, set 5, dose response (AID 720591);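 note: desuccinylation of succinyl peptide AMC substrate read as fluorescence after trypsin release; potency of inhibitors that lower fluorescence and may act on trypsin instead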
Beta-lactamase [8] = molecular target: T4, Beta-lactamase (Pseudomonas aeruginosa, UniProt Q79MP6); experiment: […] counterscreen for selective VIM-2 inhibitors: dose response biochemical high throughput screening assay to identify inhibitors of IMP-1 metallo-beta-lactamase.
Cytochrome P450 3A4 = Cytochrome P450 3A4 (Homo sapiens, UniProt P08684);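 note: CYP3A4 tested as one member of a cytochrome P450 panel screen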
Cytochrome P450 1A2 = molecular target: T5, Cytochrome P450 1A2 (Homo sapiens, UniProt P05177);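 note: PubChem cytochrome P450 panel assay, CYP1A2 panel member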
T5 sequence (P05177 whole entry): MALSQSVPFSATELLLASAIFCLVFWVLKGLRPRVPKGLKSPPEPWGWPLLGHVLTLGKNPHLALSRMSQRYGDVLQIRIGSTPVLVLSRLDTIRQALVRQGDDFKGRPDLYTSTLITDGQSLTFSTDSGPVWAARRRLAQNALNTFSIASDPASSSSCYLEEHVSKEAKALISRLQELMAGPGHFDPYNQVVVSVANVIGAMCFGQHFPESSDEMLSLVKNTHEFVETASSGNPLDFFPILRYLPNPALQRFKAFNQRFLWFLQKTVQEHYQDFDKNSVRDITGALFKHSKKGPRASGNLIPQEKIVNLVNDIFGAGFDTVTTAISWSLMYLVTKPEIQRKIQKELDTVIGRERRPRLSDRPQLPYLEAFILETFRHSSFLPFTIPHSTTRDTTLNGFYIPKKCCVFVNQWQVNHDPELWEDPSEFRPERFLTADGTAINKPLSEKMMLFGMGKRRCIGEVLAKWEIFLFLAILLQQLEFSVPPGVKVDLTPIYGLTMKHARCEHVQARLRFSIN

Beta-lactamase [9] = molecular target: Beta-lactamase (Salmonella choleraesuis (strain SC-B67), UniProt Q5J463); experiment: Epi-absorbance-based counterscreen for selective VIM-2 inhibitors: dose response biochemical high throughput screening assay to identify inhibitors of TEM-1 serine-beta-lactamase.
Cytochrome P450 2C19 = Cytochrome P450 2C19 (Homo sapiens, UniProt P33261); experiment: Cytochrome panel assay with activity outcomes. Panel member name: p450-cyp2c19 Compounds with AC50 equal or less than 10 uM are considered active; format: functional; details: read-out: AC50
Beta-lactamase [10] = molecular target: T4, Beta-lactamase; experiment: inhibition of IMP-1 beta-lactamase activity – biochemical, epi-absorbance, selectivity assay for VIM-2 inhibitor project, dose response (AID 1920)
[11] = non-specific 3'UTR reporter inhibition in Clone20-Shn3RL – cell-based, Renilla luciferase, cherry-picked, counter-screen for Shn3 inhibitor project, dose response (AID 624133); format: functional
[12] = loss of viability in HepG2 cells – cell-based, CellTiter-Glo, cherry-picked, cytotoxicity control for Shn3 inhibitor project, dose response (AID 624134); format: functional
[13] = reduction of Shn3 3'UTR-driven luciferase in osteoblasts – cell-based, Clone20 osteoblasts, firefly luciferase, cherry-picked, dose response (AID 624132); format: functional;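 note: firefly luciferase luminescence from reporter carrying the Shn3 3'UTR in osteoblasts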
HEK293 [14] = experiment: cells; details: Homo sapiens
HEK293 [15] = experiment: cells; details: Homo sapiens; remark: listed apart in the source
[16] = molecular target: T6, Trace amine-associated receptor 1 (Homo sapiens, UniProt Q96RJ0); experiment: Fluorescence-based cell-based high throughput dose response assay to identify agonists of the human trace amine associated receptor 1 (TAAR1).; format: functional
T6 sequence (Q96RJ0 whole entry): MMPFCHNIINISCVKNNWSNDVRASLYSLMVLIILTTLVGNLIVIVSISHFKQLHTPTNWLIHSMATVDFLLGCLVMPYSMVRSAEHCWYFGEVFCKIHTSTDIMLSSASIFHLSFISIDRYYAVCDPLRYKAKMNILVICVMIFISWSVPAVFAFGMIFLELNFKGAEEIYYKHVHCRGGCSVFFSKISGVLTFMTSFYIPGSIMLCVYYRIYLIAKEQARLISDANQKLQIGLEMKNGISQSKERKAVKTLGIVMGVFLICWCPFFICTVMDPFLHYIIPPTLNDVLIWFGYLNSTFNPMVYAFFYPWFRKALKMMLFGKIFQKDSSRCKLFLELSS

[17] = molecular target: T6, Trace amine-associated receptor 1; experiment: Counterscreen for agonists of the human trace amine associated receptor 1 (hTAAR1): Fluorescence-based cell-based high throughput dose response assay to identify hTAAR1 agonist that also desensitize TAAR1 receptor response.; format: functional
cells [18] = format: functional, cell-based; remark: listed apart in the source
cells [19] = format: functional, cell-based; remark: listed apart in the source
[20] = blockade of melanocortin 4 receptor signaling – cell-based, plate reader, cherry pick, counter-screen for LGR2 antagonist project, dose response (AID 743444); format: functional;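 note: transfected HEK 293 cells stimulated with alpha-MSH peptide; potency of inhibitors of the alpha-MSH evoked signal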
H9c2 = experiment: cells; format: functional, cell-based; details: Rattus norvegicus, H9c2, Myocardium;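 note: confirmatory concentration-response retest of ultra-high-throughput screening hits for modulation of myocardial damage; cell death induced by hydrogen peroxide oxidative stress; compound pretreatment for 60 min then peroxide exposure for 2 h; potency is for protecting the cells against peroxide damage rather than for killing them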
[21] = toxicity toward HepG2 liver cells – cell-based, plate reader, cherry-pick, antagonist series, cytotoxicity control, dose response (AID 743416); format: functional
[22] = inhibition of ADAM10 peptide cleavage – biochemical, FRET peptide substrate, recombinant human ADAM10, selectivity assay for ADAM17 exosite inhibitor project, dose response (AID 743259);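 note: ADAM10 enzyme cleaving a FRET peptide substrate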
[23] = molecular target: T7, Disintegrin and metalloproteinase domain-containing protein 17 (Homo sapiens, UniProt P78536); experiment: exosite inhibitors of ADAM17, dose response, biochemical (AID 743260)
[24] = blockers of bursicon-stimulated LGR2 cAMP reporter – cell-based, HEK293, CRE-luciferase reporter, cherry pick, set 2, dose response (AID 743343); format: functional;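 note: transfected cells were stimulated with diluted bursicon conditioned medium after compound addition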
[25] = viability loss in HEK293 cells – cell-based, plate reader, cherry-picked samples, cytotoxicity control, dose response (AID 743446); format: functional
[26] = A549 cell cytotoxicity, dose response, cytotoxicity control, plate reader, cherry-pick, antagonist series (AID 743412); format: functional, cell-based
[27] = viability of PTEN-deleted HCT116 cells – cell-based, HCT116 PTEN knockout, dose response (AID 1047); format: functional;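 note: HCT116 colon tumor cells with PTEN knocked out; cells exposed to compound for 60 hours before readout; potency for loss of cell viability measured by luminescence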
[28] = viability of HCT116 lacking mutant beta-catenin – cell-based, human colon tumor, dose response (AID 1045); format: functional;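 note: HCT116 colon tumor cells with beta catenin knocked out; cells exposed to compound for 60 hours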
[29] = molecular target: T7, Disintegrin and metalloproteinase domain-containing protein 17; experiment: inhibition of ADAM17 substrate cleavage – biochemical, quenched FRET substrate, counter-screen for ADAM10 exosite inhibitor project, dose response (AID 743253)
[30] = Luminescence Cell-Based Dose Retest to Confirm Inhibitors of Cancer Stem Cells. [Related pubchem assays (depositor defined):AID2717, AID2721]; format: functional; details: Homo sapiens

C=CCN1C(=O)C2(C(C(=O)c3ccc4c(c3)OCCO4)=C(O)C(=O)N2CCCOC)c2ccccc21 (stereo unspecified)
Ki (fMet-Leu-Phe receptor): > 66.7 µM (inactive)

Cc1cccc(NC(=O)c2ccc3c(=O)n4c(nc3c2)CCCCC4)n1
IC50 [1]: > 0.834 µM (active)
IC50 (cells [2]): > 67.5 µM (inactive)

CN1Cc2c(N3CCOCC3)nc3sc(C(=O)c4ccccc4)c(N)c3c2CC1(C)C
AC50 [3]: 32.1 µM (active)

COC(=O)CSc1nc(COc2ccccc2)nc2ccccc12
EC50 [4]: > 112 µM (not active)
EC50 [5]: > 112 µM (not active)
IC50 (Major prion protein): 8.48 µM (active)
IC50 (cells [6]): > 138 µM (inactive)

C/C(NCc1cccnc1)=C1/C(=O)NC(=O)N(c2ccc(C)cc2)C1=O
IC50 (Major prion protein): 10.2 µM (inactive)
IC50 (cells [6]): > 138 µM (inactive)

OC(CNCc1ccccc1)COc1ccccc1 (stereo unspecified)
AC50 [7]: > 30 µM (inactive)

CC(C)(C)C(=O)Nc1nnc(SCC(=O)NCc2cccs2)s1
IC50 (Beta-lactamase [8]): > 59.6 µM (inactive)
AC50 (Cytochrome P450 3A4): 25.1 µM (inconclusive)
AC50 (Cytochrome P450 1A2): 22.4 µM (inconclusive)
IC50 (Beta-lactamase [9]): > 59.6 µM (inactive)
AC50 (Cytochrome P450 2C19): 3.16 µM (inconclusive)
IC50 (Beta-lactamase [10]): > 59.6 µM (inactive)

CN(C)CCCN=c1cc(-c2ccccc2)oc2ccc(Cl)cc12
AC50 [3]: 4.38 µM (active)

Cc1ccsc1C1C2=C(O)CC(C)(C)CC2=Nc2ncnn21 (stereo unspecified)
Ki (fMet-Leu-Phe receptor): 12.5 µM (active)

CN(C)CCNC(=O)c1ccc(Cl)c2cc3ccccc3nc12
AC50 [3]: 0.846 µM (active)
AC50 [11]: 24 µM (active)
AC50 [12]: 4.37 µM (active)
AC50 [13]: 9.85 µM (active)
EC50 (HEK293 [14]): > 2.21 µM (active)
EC50 (HEK293 [15]): > 59.7 µM (inactive)

c1ccc(C2CNCCc3ccccc32)cc1 (stereo unspecified)
EC50 [16]: 1.41 µM (active)
IC50 [17]: 3.36 µM (active)
EC50 (cells [18]): > 29.9 µM (inactive)
IC50 (cells [19]): > 29.9 µM (inactive)

CCc1nc2ccc(C(=O)Nc3cc(-c4ccccc4)ccc3OC)cn2c1N(C)Cc1nccs1
AC50 [20]: 18.4 µM (active)
IC50 (H9c2): > 79 µM (inactive)
AC50 [21]: 51.1 µM (active)
IC50 [22]: > 69.5 µM (inactive)
IC50 [23]: > 69.5 µM (inactive)
AC50 [24]: 9.18 µM (active)
AC50 [25]: 18.1 µM (active)
AC50 [26]: 21.6 µM (active)

Cc1ccc2c(CN(C)Cc3ccccc3)cc(=O)oc2c1
IC50 [1]: > 67.6 µM (inactive)
IC50 (cells [2]): > 67.6 µM (inactive)

COc1cccc(Nc2nc(C(C)N)cs2)n1 (stereo unspecified)
EC50 [16]: 1.17 µM (active)
IC50 [17]: 4.76 µM (active)
EC50 (cells [18]): > 29.9 µM (inactive)
IC50 (cells [19]): > 29.9 µM (inactive)

Cc1ccc(Cc2c(-c3ccco3)nc3ccc(Br)cn23)cc1
IC50 (Major prion protein): 8.5 µM (active)
IC50 (cells [6]): 56.8 µM (inactive)

CCc1ccccc1NC(=O)CNC(=O)CNC(=O)c1cccs1
AC50 [7]: 25.1 µM (active)

Nc1[nH]c(C(=O)c2ccc(Br)cc2)c(-c2ccc(Cl)cc2[N+](=O)[O-])c1C(=O)NCCc1c[nH]c2ccccc12
IC50 [22]: 9.24 µM (active)
IC50 [23]: > 69.5 µM (inactive)

N#Cc1c(Cl)nc(N/N=C/c2ccccc2)c(Cl)c1Cl
EC50 [27]: 12.1 µM (active)
EC50 [28]: 6.92 µM (active)
IC50 [29]: > 69.5 µM (inactive)

N=C(N/N=C\c1ccc(F)cc1)N/N=C\c1ccc(F)cc1
EC50 [16]: 1.75 µM (active)
AC50 [30]: 5.38 µM (active)
IC50 [17]: 4.9 µM (active)
EC50 (cells [18]): 26.1 µM (inactive)
IC50 (cells [19]): > 29.9 µM (inactive)
